Results on nine compounds are retold here after patent publication US4352817A, “Imidazo-diazepines and their use” (priority 1982, dated 1982).

Series [1] relates to Schistosoma mansoni. As to the kind of experiment: Schistosomicidal activity in infected golden hamsters. As to conditions: Hamster. Type of series: in vivo. The method, then:
(§1) Mice and golden hamsters are infected subcutaneously with 60 cercaria of Schistosoma mansoni. About 42 days after the infection, they are treated orally with a single dosage of the preparation to be tested. 5 animals are used per preparation and dosage. 10 untreated animals are used as controls. The animals are killed and dissected 2 weeks (hamster) or 3 weeks (mice) after the treatment. Worm pairs in mesenteric veins, portal vein and liver are dissected-out, counted and the condition of the worms (living or dead) are registered. A schistosomicidal activity of a preparation manifests itself in the appearance of dead worms in the vessels of the liver. Dead worms are never found in untreated control animals. The test is evaluated by calculating the percentage of dead worm pairs in the liver of infected, treated animals.

The subject of series [2] is Schistosoma mansoni. As to the kind of experiment: In vitro schistosomicidal activity (motility of worm pairs). Type of series: cell-based. On the set-up: key to Activity: worm pairs motionless within 15 minutes; b: worm pairs show normal motility during the test period of 120 hours. As to conditions: for Activity: 37° C., 120 hours. As for the experimental part:
In order to test the in vitro activity of preparations, worm pairs of Schistosoma mansoni are isolated from mice and incubated at 37° C. in a nutrient medium. Preparations are added in the form of a solution or as a suspension. The motility of the worms is observed under a microscope and registered during the test period of 120 hours. A schistosomicidal activity of a preparation manifests itself in the more or less rapid loss of motility of the worms. Control worms in the nutrient medium without the addition of a preparation maintain their normal motility during the entire test period of 120 hours.

The test system of series [3] is Schistosoma mansoni. Briefly: Schistosomicidal activity in infected mice. Type of series: in vivo. As to conditions: for Schistosomicidal activity in %: Mouse. As for the experimental part:
as §1

The target in series [4] is central benzodiazepine receptors (cerebral cortex). As to the kind of experiment: Inhibition of binding of tritiated diazepam at the specific benzodiazepine receptors in the cerebral cortex. As for the experimental part:
The affinity of compounds of formula I to the central benzodiazepine receptors was determined according to the method described in Life Science 20, 2101-2110 (1977) and Science 198, 849-851 (1977). According to this method, the inhibition of the binding of tritiated diazepam at the specific benzodiazepine receptors in the cerebral cortex by the respective test substances is ascertained. The IC50 ("50% inhibiting concentration") is that concentration of the respective test substance which brings about a 50 percent inhibition of the specific binding of the tritiated diazepam at the specific benzodiazepine receptors in the cerebral cortex.

Series [5] relates to diazepam effect in the pentetrazole test. Briefly: Antagonism of diazepam in the pentetrazole test. The format is in vivo, mice. The settings on record: for ED50: Mus musculus, po, 0.25 h, mice, diazepam 5 mg/kg i.p. 1 hour before pentetrazole 120 mg/kg i.p., test compound p.o. 15 minutes before pentetrazole. As for the experimental part: This property was used to evaluate the test described hereinafter which permits the determination of compounds which are capable of antagonizing the central properties of 1,4-benzodiazepines which have tranquillizing activity.
The antagonistic activity of the compounds investigated, i.e. their ability to counteract the activity of the diazepam in the pentetrazole test, is determined by counting the mice which suffer convulsive attacks in this test.
(§2) In the following Table there are presented the results which have been obtained with representative members of the class of compound defined by formula I in the test previously described. The ED50 is the amount of test compound in mg/kg (p.o.) which counteracts in 50% of the animals the diazepam effect in the above test. Moreover, the Table contains the IC50 value defined above for all test compounds listed therein as well as data concerning the acute toxicity of certain of these compounds (LD50 in mg/kg in the case of single oral administration to mice).

Series [6] can be described thus: Acute toxicity, single oral administration to mice. The settings on record: mouse, in vivo.
Text: as §2

For `CC1N=C(c2ccccc2Cl)c2cc([N+](=O)[O-])ccc2NC1=O` (single isomer, unassigned; (+)) [Compound S, (+)-5-(o-chlorophenyl)-1,3-dihydro-3-methyl-7-nitro-2H-1,4-benzodiazepin-2-one, reference compound], the “Schistosomicidal activity in %” value in the series with Schistosoma mansoni [1] (Compound S 75 mg/kg p.o. alone) and in the series with Schistosoma mansoni [3] (Compound S 75 mg/kg p.o. alone) was 100% in each case. The Activity result in the series with Schistosoma mansoni [2] (Compound S 25 ug/ml alone) is given as “a (worm pairs motionless within 15 minutes)”.

The IC50 is the concentration needed to halve the response being measured. The ED50 is the dose that gives a 50% effect, or the effect in half of the subjects. In series [4], `CN1Cc2c(C(=O)OC(C)(C)C)ncn2-c2cccc(Br)c2C1=O` [(a) H Br --CH3 O, t-butyl 7-bromo-5,6-dihydro-5-methyl-6-oxo-4H-imidazo[1,5-a][1,4]benzodiazepine-3-carboxylate] registered an IC50 of 2.3 nM. This compound gave an ED50 in series [5] of 0.13 mg/kg.

For the compound `CN1Cc2c(C(=O)OC(C)(C)C)ncn2-c2ccccc2C1=S` [(a) H H --CH3 S, t-butyl 5,6-dihydro-5-methyl-6-thioxo-4H-imidazo[1,5-a][1,4]benzodiazepine-3-carboxylate], the IC50 in series [4] came out at 8.9 nM. The 50% effect level in series [5] (ED50) was put at a dose of 7.1 mg/kg.

The term LD50 denotes the dose at which mortality reaches 50%. The compound `CN1Cc2c(C(=O)OC(C)(C)C)ncn2-c2ccccc2C1=O` [(a) H H --CH3 O, t-butyl 5,6-dihydro-5-methyl-6-oxo-4H-imidazo[1,5-a][1,4]benzodiazepine-3-carboxylate] displayed a concentration for half-maximal inhibition (IC50) in series [4] of 3.3 nM. The same compound returned an ED50 in series [5] of 4.7 mg/kg. In series [6], this compound came in with a median lethal dose (LD50) of 625 mg/kg.

On to `CN1Cc2c(C(=O)OC(C)(C)C)ncn2-c2ccc(F)cc2C1=O` [(a) F H --CH3 O, t-butyl 8-fluoro-5,6-dihydro-5-methyl-6-oxo-4H-imidazo[1,5-a][1,4]benzodiazepine-3-carboxylate], for which, in series [4], the IC50 is 1.4 nM. In series [5], this compound displayed an ED50 of 8.4 mg/kg.

Regarding `CN1Cc2c(C(=O)OC(C)(C)C)ncn2-c2cccc(Cl)c2C1=O` [(a) H Cl --CH3 O, t-butyl 7-chloro-5,6-dihydro-5-methyl-6-oxo-4H-imidazo[1,5-a][1,4]benzodiazepine-3-carboxylate], the “Schistosomicidal activity in %” value in the series on Schistosoma mansoni [1] (Compound A 225 mg/kg p.o. alone) and in the series on Schistosoma mansoni [3] (Compound A 300 mg/kg p.o. alone) was 0% throughout. For the same compound, the IC50 in series [4] amounted to 3 nM. The 50% effect level in series [5] (ED50) was put at a dose of 0.2 mg/kg. For the same compound, the Activity entry in the series with Schistosoma mansoni [2] (Compound A 25 ug/ml alone) and with Schistosoma mansoni [2] (Compound A 100 ug/ml alone) was “b” in each case. Moreover, the “influence on schistosomicidal activity of compound S” value with Schistosoma mansoni [2] (in vitro test) was “not influenced detrimentally”; in the series on Schistosoma mansoni [3] (animal tests (mice and hamsters)), “not influenced detrimentally”. Besides, the median lethal dose (LD50) in series [6] is 312 mg/kg.

In series [4], `CN1Cc2c(C(=O)OC(C)(C)C)ncn2-c2cccc(C#N)c2C1=O` [(a) H CN --CH3 O, t-butyl 7-cyano-5,6-dihydro-5-methyl-6-oxo-4H-imidazo[1,5-a][1,4]benzodiazepine-3-carboxylate] returned a half-maximal inhibitory concentration (IC50) of 10 nM. The compound also gave an ED50 in series [5] of 1.22 mg/kg.

Regarding `CN1Cc2c(C(=O)OC(C)(C)C)ncn2-c2cccc(I)c2C1=O` [(a) H I --CH3 O, t-butyl 5,6-dihydro-7-iodo-5-methyl-6-oxo-4H-imidazo[1,5-a][1,4]benzodiazepine-3-carboxylate], the IC50 in series [4] is 2.6 nM. Also, the ED50 in series [5] was 0.14 mg/kg.

Take `CN1C(=O)CN=C(c2ccccc2)c2cc(Cl)ccc21` [diazepam, reference compound]: the “experimental animals protected from convulsive attacks in the pentetrazole test” value in series [5] (diazepam 5 mg/kg i.p., more than 900 mice) is reported as “protects all experimental animals from convulsive attacks”.
